US7772177B2, “BIR domain binding compounds” (Aegera Therapeutics, Inc., priority 2005, dated 2010)

Assays:
[1] = biological target: T1, GST-HIAP1(cIAP-2) BIR 3 (Homo sapiens, UniProt Q13489); assay: Fluorescence polarization-based competition assay, cIAP-2 Bir3; format: binding
T1 construct: made in house; host or cells: E. coli DH5-alpha
Description: GST-HIAP1(cIAP-2) BIR 3: HIAP1 coding sequence from amino acids 236-349, cloned into PGex4T3 via BamH1 and XhoI. The plasmid was transformed into E. coli DH5α for use in protein expression and purification.
(§1) A fluorescent peptide probe, Fmoc-Ala-Val-Pro-Phe-Tyr(t-Bu)-Leu-Pro-Gly(t-Bu)-Gly-OH was prepared using standard Fmoc chemistry on 2-chlorotrityl chloride resin (Int. J. Pept. Prot. Res. 38:555-561, 1991). Cleavage from the resin was performed using 20% acetic acid in dichloromethane (DCM), which left the side chain still blocked. The C-terminal protected carboxylic acid was coupled to 4′-(aminomethyl)fluorescein (Molecular Probes, A-1351; Eugene, Oreg.) using excess diisopropylcarbodiimide (DIC) in dimethylformamide (DMF) at room temperature and was purified by silica gel chromatography (10% methanol in DCM). The N-terminal Fmoc protecting group was removed using piperidine (20%) in DMF, and purified by silica gel chromatography (20% methanol in DCM, 0.5% HOAc). Finally, the t-butyl side chain protective groups were removed using 95% trifluoroacetic acid containing 2.5% water and 2.5% triisopropyl silane. […] Compound #174 was also used as a fluorescent probe in this assay.
(§2) For all assays, the fluorescence and fluorescence-polarization was evaluated using a Tecan Polarion instrument with the excitation filter set at 485 nm and the emission filter set at 535 nm. For each assay, the concentration of the target protein was first establish by titration of the selected protein in order to produce a linear dose-response signal when incubated alone in the presence of the fluorescent probe. Upon establishing these conditions, the compounds potency (IC50) and selectivity, was assessed in the presence of a fix defined-amount of target protein and fluorescent probe and a 10 point serial dilution of the selected compounds. For each IC50 curve, the assays were run as followed: 25 ul/well of diluted compound in 50 mM MES buffer pH 6.5 were added into a black 96 well plate then 25 ul/well of bovine serum albumin (BSA) at 0.5 mg/ml in 50 mM MES pH 6.5. Auto-fluorescence for each compound was first assessed by performing a reading of the compound/BSA solution alone. Then 25 ul of the fluorescein probe diluted into 50 mM MES containing 0.05 mg/ml BSA were added and a reading to detect quenching of fluorescein signal done. Finally 25 ul/well of the target or control protein (GST-BIRs) diluted at the appropriate concentration in 50 mM MES containing 0.05 mg/ml BSA were added and the fluorescence polarization evaluated.
(§3) For each assay the relative polarization-fluorescence units were plotted against the final concentrations of compound and the IC50 calculated using the Grad pad prism software and/or Cambridge soft. The ki value were derived from the calculated IC50 value as described above and according to the equation described in Nikolovska-Coleska, Z. (2004) Anal Biochem 332, 261-273.
(§4) Compounds exemplified in Table 6 were tested and found to have IC50s in the following ranges: A: >10 μM; B: <10 μM; C: <1 μM using the fluorescence polarization assay, as shown in Table 5. Each of the IC50s was calculated from Graph Pad.

[2] = biological target: T2, GST-XIAP BIR3RING (Homo sapiens, UniProt P98170); assay: Fluorescence polarization-based competition assay, XIAP Bir3-RING; format: binding
T2 construct: made in house; host or cells: E. coli DH5-alpha
T2 sequence (P98170 246-497): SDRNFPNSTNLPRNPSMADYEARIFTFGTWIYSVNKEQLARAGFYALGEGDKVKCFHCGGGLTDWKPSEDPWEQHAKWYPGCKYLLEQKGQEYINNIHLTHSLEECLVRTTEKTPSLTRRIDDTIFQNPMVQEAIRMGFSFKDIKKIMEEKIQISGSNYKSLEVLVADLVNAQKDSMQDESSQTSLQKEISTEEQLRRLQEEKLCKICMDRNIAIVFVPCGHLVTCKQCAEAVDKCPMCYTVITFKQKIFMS
Description: GST-XIAP BIR3RING: XIAP coding sequence amino acids 246-497 cloned into PGEX2T1 via BamH1 and AVA I. The plasmid was transformed into E. coli DH5α for use in protein expression and purification.
as §1, §2, §3, §4

[3] = biological target: T3, GST-HIAP2 (cIAP-1) BIR 3 (Homo sapiens, UniProt Q13490); assay: Fluorescence polarization-based competition assay, cIAP-1 Bir3; format: binding
T3 construct: made in house; host or cells: E. coli DH5-alpha
T3 sequence (Q13490 251-363): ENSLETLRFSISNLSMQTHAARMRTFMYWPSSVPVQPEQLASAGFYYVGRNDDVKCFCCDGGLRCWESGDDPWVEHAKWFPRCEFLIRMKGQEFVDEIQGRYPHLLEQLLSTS
Description: GST-HIAP2 (cIAP-1) BIR 3: HIAP2 coding sequence from amino acids 251-363 cloned into PGex4T3 via BamH1 and XhoI. The plasmid was transformed into E. coli DH5α for use in protein expression and purification.
as §1, §2, §3, §4

[4] = biological target: T4, XIAP Bir3-RING (GST-BIR 3RING) (Homo sapiens, UniProt P98170); assay: Caspase de-repression assay using cellular extracts (apoptosome), XIAP Bir3-RING; format: biochemical; details: 293 cell S100 extract
T4 construct: made in house; host or cells: E. coli DH5-alpha
T4 sequence (P98170 246-497): as the sequence (P98170 246-497) above
Description: 100 ug of 293 cell S100 extract and 0.25 uM-2 uM of GST-Xiap fusion protein (GST-BIR 3RING, GST-linker BIR2 BIR3RING) were co-incubated with serial dilutions of compound (0.02 uM-40 uM). Extracts were activated by adding 1 mM dATP, 0.1 mM ALLN, 133 ug Cytochrome C (final concentrations), and incubating at 37° C. for 25 minutes. All reactions and dilutions used S100 buffer (50 mM Pipes pH 7.0, 50 mM KCl, 0.5 mM EGTA pH 8.0, 2 mM MgCl2 supplemented with 1/1000 dilutions of 2 mg/ml Cytochalisin B, 2, mg/ml Chymotstatin, Leupeptin, Pepstatin, Antipain, 0.1M PMSF, 1M DTT). Final reaction volume was 30 ul. Caspase-3 activity was measured by overlaying 30 ul of a 0.4 mM DEVD-AMC solution. AMC cleavage was measured in a TECAN spectrophotometer at 360 nm excitation and 444 nm emission, on a kinetic cycle of 1 hour with readings taken every 5 minutes. Caspase activity was calculated as Vo of AMC fluorescence/sec. Caspase de-repression by our compounds were compared to fully activated extract and activated extract repressed by the presence of XIAP fusion protein.
Results: Compounds were also tested in the apoptosome assay and the linker-BIR2/caspase-3 inhibition assay and found to have IC50s in the following ranges: A: >10 μM; B: <10 μM; C: <1 μM, as shown in Table 7.

T1 sequence (Q13489 236-349): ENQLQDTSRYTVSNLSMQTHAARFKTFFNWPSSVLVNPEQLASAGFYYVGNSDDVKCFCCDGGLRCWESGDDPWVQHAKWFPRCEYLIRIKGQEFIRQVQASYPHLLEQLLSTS

| IC50 [1] | IC50 [2] | IC50 [3] | IC50 [4] | Compound |
| --- | --- | --- | --- | --- |
| < 10000 nM | < 10000 nM | < 10000 nM | – | CC(C)[C@H](NC(=O)[C@H](C)N)C(=O)N1CCC[C@H]1CSCCc1ccccc1 [Compound 66] |
| < 1000 nM | < 1000 nM | < 1000 nM | – | CN[C@@H](C)C(=O)N[C@H](C(=O)N1CCC[C@H]1CN(CCc1ccccc1)C(=O)[C@H]1CCCN1)C(C)(C)C [Compound 50] |
| < 10000 nM | < 10000 nM | < 10000 nM | – | C[C@H](N)C(=O)N[C@H](C(=O)N1CCC[C@H]1COCc1ccccc1)C(C)(C)C [Compound 64] |
| < 1000 nM | < 1000 nM | < 1000 nM | – | CN[C@@H](C)C(=O)N[C@H](C(=O)N1CCC[C@H]1CN(CCc1ccccc1)C(=O)c1ccccc1)C(C)(C)C [Compound 47] |
| < 1000 nM | < 1000 nM | < 1000 nM | – | CN[C@@H](C)C(=O)N[C@H](C(=O)N1CCC[C@H]1CN(CCc1ccccc1)C(=O)[C@H](C)N)C(C)(C)C [Compound 37] |
| < 1000 nM | < 1000 nM | < 1000 nM | – | CN[C@@H](C)C(=O)N[C@H](C(=O)N1CCC[C@H]1CN(C[C@@H](C)c1ccccc1)C(=O)OCc1ccccc1)C(C)(C)C [Compound 59] |
| < 1000 nM | < 1000 nM | < 1000 nM | – | CN[C@@H](C)C(=O)N[C@H](C(=O)N1CCC[C@H]1CN(CCc1ccccc1)C(=O)CNc1ccccc1)C(C)(C)C [Compound 40] |
| < 1000 nM | < 1000 nM | < 1000 nM | – | CN[C@@H](C)C(=O)N[C@H](C(=O)N1CCC[C@H]1CN(CCc1ccccc1)C(=O)[C@@H]1CCCN1)C(C)(C)C [Compound 51] |
| < 10000 nM | < 1000 nM | < 1000 nM | – | CN[C@@H](C)C(=O)N[C@H](C(=O)N1CCC[C@H]1CN(C[C@H](C)c1ccccc1)C(=O)OCc1ccccc1)C(C)(C)C [Compound 60] |
| > 10000 nM | < 10000 nM | < 10000 nM | – | CC(C)[C@H](NC(=O)[C@H](C)N)C(=O)N1CCC[C@H]1COCc1ccccc1 [Compound 63] |
| < 1000 nM | < 1000 nM | < 1000 nM | – | C#CCOC[C@H](NC(=O)[C@@H](N)CO)C(=O)N1CCC[C@H]1CN(CCc1ccccc1)C(=O)C(F)(F)F [Compound 61] |
| < 1000 nM | < 1000 nM | < 1000 nM | – | CN[C@@H](C)C(=O)N[C@H](C(=O)N1CCC[C@H]1CN(CCc1ccccc1)C(=O)[C@H](N)Cc1cccnc1)C(C)(C)C [Compound 55] |
| < 1000 nM | < 1000 nM | < 1000 nM | – | CN[C@@H](C)C(=O)N[C@H](C(=O)N1CCC[C@H]1CN(CCc1ccccc1)C(=O)[C@H](N)Cc1ccc(OC)cc1)C(C)(C)C [Compound 54] |
| < 1000 nM | < 1000 nM | < 1000 nM | – | CN[C@@H](C)C(=O)N[C@H](C(=O)N1CCC[C@H]1CN(CCc1ccccc1)S(=O)(=O)c1ccccc1)C(C)(C)C [Compound 69] |
| < 1000 nM | < 1000 nM | < 1000 nM | – | CN[C@@H](C)C(=O)N[C@H](C(=O)N1CCC[C@H]1CN(CCc1ccccc1)C(=O)Cc1ccccc1)C(C)(C)C [Compound 57] |
| < 1000 nM | < 1000 nM | < 1000 nM | – | CN[C@@H](C)C(=O)N[C@H](C(=O)N1CCC[C@H]1CN(CCc1ccccc1)S(=O)(=O)Cc1ccccc1)C(C)(C)C [Compound 68] |
| < 1000 nM | < 1000 nM | < 1000 nM | – | CN[C@@H](C)C(=O)N[C@H](C(=O)N1CCC[C@H]1CN(CCc1ccccc1)C(=O)CNC(C)=O)C(C)(C)C [Compound 43] |
| < 10000 nM | > 10000 nM | < 10000 nM | – | CC(C)[C@H](NC(=O)[C@H](C)N)C(=O)N1CCC[C@H]1CS(=O)(=O)CCc1ccccc1 [Compound 67] |
| < 1000 nM | < 1000 nM | < 1000 nM | – | CC(C)[C@H](NC(=O)[C@H](C)N)C(=O)N1CCC[C@H]1CN(CCCCOC(=O)c1ccccc1)CCc1ccccc1 [Compound 65] |
| < 1000 nM | < 1000 nM | < 1000 nM | – | CN[C@@H](C)C(=O)N[C@H](C(=O)N1CCC[C@H]1CN(CCc1ccccc1)C(=O)[C@H](N)Cc1ccncc1)C(C)(C)C [Compound 56] |
| < 1000 nM | < 1000 nM | < 1000 nM | – | CC[C@H](N)C(=O)N(CCc1ccccc1)C[C@@H]1CCCN1C(=O)[C@@H](NC(=O)[C@H](C)NC)C(C)(C)C [Compound 39] |
| < 1000 nM | < 1000 nM | < 1000 nM | – | CC[C@@H](N)C(=O)N(CCc1ccccc1)C[C@@H]1CCCN1C(=O)[C@@H](NC(=O)[C@H](C)NC)C(C)(C)C [Compound 46] |
| < 1000 nM | < 10000 nM | < 1000 nM | – | CN[C@@H](C)C(=O)N[C@H](C(=O)N1CCC[C@H]1CN(CCc1ccccc1)C(=O)[C@H](N)CCc1ccccc1)C(C)(C)C [Compound 58] |
| < 1000 nM | < 1000 nM | < 1000 nM | – | CN[C@@H](C)C(=O)N[C@H](C(=O)N1CCC[C@H]1CN(CCc1ccccc1)C(=O)CN(C)C)C(C)(C)C [Compound 38] |
| < 1000 nM | < 10000 nM | < 1000 nM | – | CN[C@@H](C)C(=O)N[C@H](C(=O)N1CCC[C@H]1CN(CCc1ccccc1)C(=O)CCCN)C(C)(C)C [Compound 41] |
| < 1000 nM | < 10000 nM | < 1000 nM | – | CN[C@@H](C)C(=O)N[C@H](C(=O)N1CCC[C@H]1CN(CCc1ccccc1)C(=O)[C@@H](C)N)C(C)(C)C [Compound 36] |
| < 1000 nM | < 1000 nM | < 1000 nM | – | CN[C@@H](C)C(=O)N[C@@H](CCCN)C(=O)N1CCC[C@H]1CN(CCc1ccccc1)C(=O)CCc1ccccc1 [Compound 49] |
| < 10000 nM | < 10000 nM | < 10000 nM | < 1000 nM | CC(=O)N(CCCc1ccccc1)C[C@@H]1CCCN1C(=O)[C@@H](NC(=O)[C@H](C)N)C(C)C [Compound 11] |
